Test results published in patent US20200216441A1, “PESTICIDALLY ACTIVE HETEROCYCLIC DERIVATIVES WITH SULFUR CONTAINING SUBSTITUENTS” (SYNGENTA PARTICIPATIONS AG, priority 2017, published 2020).

What was measured:
[1] = tested on: Euschistus heros (Neotropical Brown Stink Bug); assay: whole plant or invertebrate; type: in vivo; conditions: 120 h, application rate of 200 ppm, N2 nymphs on sprayed soybean leaves, 5 days after infestation, read-out: effect in at least one of the two categories (mortality or growth inhibition)
[2] = tested on: Myzus persicae (Green Peach Aphid); assay: whole plant or invertebrate; type: in vivo; conditions: 144 h, test rate of 24 ppm, systemic, roots of infested pea seedlings in test solution, 6 days
[3] = tested on: Myzus persicae (Green Peach Aphid); assay: whole plant or invertebrate; conditions: foliar, 144 h
[4] = tested on: Bemisia tabaci (Cotton White Fly); conditions: in Gossypium hirsutum, foliar, 144 h
[5] = tested on: Frankliniella occidentalis (Western Flower Thrips); conditions: foliar, 168 h
[6] = tested on: Plutella xylostella (Diamond Back Moth); assay: whole plant or invertebrate; type: in vivo; conditions: 120 h, application rate of 200 ppm, L2 larvae on treated artificial diet, 5 days after infestation, read-out: effect in at least one of the two categories (mortality or growth inhibition)
[7] = tested on: Spodoptera littoralis (Egyptian Cotton Leaf Worm); assay: whole plant or invertebrate; conditions: in Gossypium barbadense, foliar, 72 h, read-out: control (mortality, anti-feeding effect, growth inhibition)
[8] = tested on: Diabrotica Balteata (Corn Root Worm); assay: Diabrotica balteata (Corn Root Worm); conditions: in Zea mays, 96 h, read-out: effect in at least one of the two categories (mortality or growth inhibition)
[9] = tested on: Tetranychus urticae (Two-Spotted Spider Mite); conditions: foliar, 192 h
[10] = tested on: Spodoptera littoralis (Egyptian Cotton Leaf Worm); assay: Spodoptera littoralis (Egyptian Cotton Leaf Worm), uptake by lettuce roots from agar; type: in vivo; conditions: 144 h, test rate of 12.5 ppm, compound in agar absorbed by lettuce roots, 6 days after infestation, read-out: effect in at least one of the three categories (mortality, anti-feeding, or growth inhibition)
Excerpt: Example B10: Spodoptera littoralis (Egyptian Cotton Leaf Worm)
Test compounds were applied by pipette from 10′000 ppm DMSO stock solutions into 24-well plates and mixed with agar. Lettuce seeds were placed onto the agar and the multi well plate was closed by another plate which contained also agar. After 7 days the compound was absorbed by the roots and the lettuce grew into the lid plate. The lettuce leaves were then cut off into the lid plate. Spodoptera eggs were pipetted through a plastic stencil onto a humid gel blotting paper and the lid plate was closed with it.

[11] = tested on: Myzus persicae (Green Peach Aphid); assay: Myzus persicae (Green Peach Aphid). Intrinsic Activity; conditions: 120 h

CCS(=O)(=O)c1cc(OC(C)(C)C#N)cnc1-c1nc2cc(C(F)(F)F)ncc2n1C [Compound P18, 2-[[5-ethylsulfonyl-6-[3-methyl-6-(trifluoromethyl)imidazo[4,5-c]pyridin-2-yl]-3-pyridyl]oxy]-2-methyl-propanenitrile]
≥ 80%: percent effect (mortality or growth inhibition) at 200 ppm [1] | mortality at 24 ppm [2] | mortality at 200 ppm [3] | mortality at 200 ppm [4] | mortality at 200 ppm [5] | percent effect (mortality or growth inhibition) at 200 ppm [6] | mortality at 200 ppm [7] | mortality at 200 ppm [8] | mortality at 200 ppm [9] | percent effect (mortality, anti-feeding or growth inhibition) at 12.5 ppm [10]

CCS(=O)(=O)c1cc(OC(F)(F)Br)cnc1-c1nc2cc(C(F)(F)F)ncc2n1C [Compound P99, 2-[5-[bromo(difluoro)methoxy]-3-ethylsulfonyl-2-pyridyl]-3-methyl-6-(trifluoromethyl)imidazo[4,5-c]pyridine]
≥ 80%: percent effect (mortality or growth inhibition) at 200 ppm [1] | percent effect (mortality or growth inhibition) at 200 ppm [6] | mortality at 200 ppm [7] | mortality at 200 ppm [8] | mortality at 200 ppm [9] | percent effect (mortality, anti-feeding or growth inhibition) at 12.5 ppm [10]

CCSc1cc(OC(C)(C)C#N)cnc1-c1nc2cc(C(F)(F)F)ncc2n1C [Compound P19, 2-[[5-ethylsulfanyl-6-[3-methyl-6-(trifluoromethyl)imidazo[4,5-c]pyridin-2-yl]-3-pyridyl]oxy]-2-methyl-propanenitrile]
≥ 80%: percent effect (mortality or growth inhibition) at 200 ppm [1] | mortality at 200 ppm [3] | mortality at 200 ppm [4] | percent effect (mortality or growth inhibition) at 200 ppm [6] | mortality at 200 ppm [7] | mortality at 12 ppm [11] | mortality at 200 ppm [8] | mortality at 200 ppm [9]
